This is an account of results in ChEMBL document CHEMBL4257456, “Molecular modeling study, synthesis and biological evaluation of combretastatin A-4 analogues as anticancer agents and tubulin inhibitors” (Medchemcomm, 2018).

Some results are limits rather than exact numbers.

The subject of experiment [1] is A549. As to the kind of experiment: Antiproliferative activity against human A549 cells after 72 hrs by CCK-8 assay. The format is functional, cell-based. The settings on record: A549, 72 h.
Experiment [2] relates to HCT-116. As to the kind of experiment: Antiproliferative activity against human HCT116 cells after 72 hrs by CCK-8 assay. Format: functional, cell-based. The settings on record: HCT-116, 72 h. On the technique in general: Formazan colour is commonly taken as a measure of viable cells.
Experiment [3] has as its system HepG2. As to the kind of experiment: Antiproliferative activity against human HepG2 cells after 72 hrs by CCK-8 assay. Format: functional, cell-based. As to conditions: HepG2, 72 h.
The test system of experiment [4] is MGC-803. Briefly: Antiproliferative activity against human MGC803 cells after 72 hrs by CCK-8 assay. The settings on record: MGC-803, 72 h. Format: functional, cell-based.
Experiment [5] has as its system MCF7. As to the kind of experiment: Antiproliferative activity against human MCF7 cells after 72 hrs by CCK-8 assay. Format: functional, cell-based. The settings on record: MCF7, 72 h.
The subject of experiment [6] is HeLa. Briefly: Antiproliferative activity against human HeLa cells after 72 hrs by CCK-8 assay. The format is functional, cell-based.
Experiment [7] can be described thus: Inhibition of pig brain tubulin polymerization by spectrophotometric analysis. Details: species or system Sus scrofa.

In general, IC50 refers to the concentration at which inhibition is half-maximal. A high value points to weaker potency in that assay. `COc1ccc(-c2oc3cc(OC)c(F)cc3c2C(=O)c2cc(OC)c(OC)c(OC)c2)cc1`: the IC50 in experiment [1] turned out to be 6.87 µM; in experiment [2] it was 78.2 µM; in experiment [3] it was 4.75 µM; in experiment [4], 47.3 µM; in experiment [5], 6.49 µM; in experiment [6], 19.1 µM. The IC50 in experiment [7] was over 200 µM.
In turn, `CCOc1ccc(-c2[nH]c3cc(OC)ccc3c2C(=O)c2cc(OC)c(OC)c(OC)c2)cc1` yielded an IC50 in experiment [7] of over 200 µM.
Consider `CCOc1ccc(-c2oc3cc(OC)ccc3c2C(=O)c2cc(OC)c(OC)c(OC)c2)cc1`, for which the IC50 stood at 1.37 µM in experiment [1]; 12.6 µM in experiment [2]; 1.31 µM in experiment [3]; 9.97 µM in experiment [4]; 0.91 µM in experiment [5]; 8.99 µM in experiment [6]. In addition, the IC50 in experiment [7] is 0.86 µM.
`COc1ccc(/C=C\c2cc(OC)c(OC)c(OC)c2)cc1O` [COMBRETASTATIN A4]: the IC50 in experiment [1] was found to be 5.99 µM; in experiment [2], 9 µM; in experiment [3], 16 µM; in experiment [4], 1.76 µM; in experiment [5], 0.67 µM; in experiment [6], 11.3 µM. Half-maximal inhibition in experiment [7] (IC50) was put at 0.88 µM.
As to `COc1ccc(/C=C\c2cc(OC)c(OC)c(OC)c2)cc1OP(=O)(O)O` [FOSBRETABULIN DISODIUM], the IC50 worked out at 0.4 µM in experiment [1]; 0.24 µM in experiment [2]; 0.27 µM in experiment [3]; 0.47 µM in experiment [4]; 0.96 µM in experiment [5]; 0.56 µM in experiment [6]. This compound also showed an IC50 in experiment [7] of 4.79 µM.
